Here are results for two compounds from ChEMBL document CHEMBL2010795, “Anti-inflammatory and anti-arthritic effects of new synthetic 3-(4-hydroxyphenyl)-4-(4-thiomethoxyphenyl)-1H-pyrrole-2,5-dione” (2012).

Active and inactive are the calls of the source. The rule behind the calls is not given here.

In test [1] the test system is Rattus norvegicus. Kind of test: Antiinflammatory activity in rat assessed as inhibition of carrageenan-induced hind paw edema at 50 mg/kg, po administered 1 hr before carrageenan challenge measured up to 5 hrs by plethysmometer. Details: dose 50 mg/kg. It is filed as functional, organism-based. (The carrageenan paw model is a standard test of acute inflammation.)
The subject of test [2] is Rattus norvegicus. The test is described as follows: Antiarthritic activity in Freund's complete adjuvant-induced Sprague-Dawley rat arthritis model at 50 mg/kg, po administered daily on day 9 to day 19 post challenge. It is filed as functional, organism-based. Details: dose 50 mg/kg.
Test [3] has as its system RAW264.7. Kind of test: Effect on COX-2 mRNA expression in LPS-stimulated mouse RAW264.7 cells at 10 to 40 uM preincubated for 1 hr prior LPS challenge measured after 4 hrs by RT-PCR analysis. It is filed as functional, cell-based.
In test [4] the test system is Rattus norvegicus. Kind of test: Antiarthritic activity in Freund's complete adjuvant-induced Sprague-Dawley rat arthritis model assessed as inhibition of erythema at 25 to 50 mg/kg, po administered daily on day 9 to day 19 post challenge. It is filed as functional, organism-based.
Test [5] deals with RAW264.7. Kind of test: Inhibition of LPS-induced IL-1 beta mRNA expression in mouse RAW264.7 cells at 10 to 40 uM treated 1 hr before LPS challenge measured after 24 hrs by RT-PCR analysis. It is filed as functional, cell-based.
Test [6] concerns the target T1, Prostaglandin G/H synthase 2 (Homo sapiens) (UniProt P35354).
T1 sequence (whole entry): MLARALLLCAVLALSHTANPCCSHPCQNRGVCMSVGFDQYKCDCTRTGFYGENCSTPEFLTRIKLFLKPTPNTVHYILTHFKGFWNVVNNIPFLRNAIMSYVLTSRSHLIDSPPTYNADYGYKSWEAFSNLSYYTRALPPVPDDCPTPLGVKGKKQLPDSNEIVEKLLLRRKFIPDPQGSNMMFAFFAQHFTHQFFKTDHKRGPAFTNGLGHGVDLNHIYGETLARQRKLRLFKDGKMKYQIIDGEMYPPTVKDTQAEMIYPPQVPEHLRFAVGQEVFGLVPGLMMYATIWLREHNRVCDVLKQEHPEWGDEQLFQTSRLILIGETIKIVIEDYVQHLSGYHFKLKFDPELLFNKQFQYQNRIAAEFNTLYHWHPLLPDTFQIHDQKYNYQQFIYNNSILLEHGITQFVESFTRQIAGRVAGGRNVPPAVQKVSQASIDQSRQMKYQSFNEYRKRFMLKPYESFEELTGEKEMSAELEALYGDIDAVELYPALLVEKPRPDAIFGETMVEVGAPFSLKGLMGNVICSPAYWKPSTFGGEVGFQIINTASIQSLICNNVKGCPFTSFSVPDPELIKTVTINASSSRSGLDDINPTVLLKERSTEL
The test is described as follows: Inhibition of human recombinant COX2 assessed as PGF2alpha production preincubated for 10 mins before substrate addition by EIA.

Test [7] has as its system Rattus norvegicus. Kind of test: Antiarthritic activity in Freund's complete adjuvant-induced Sprague-Dawley rat arthritis model at 25 mg/kg, po administered daily on day 9 to day 19 post challenge. It is filed as functional, organism-based. Details: dose 25 mg/kg.
Test [8] concerns RAW264.7. Kind of test: Inhibition of iNOS protein expression in mouse RAW264.7 cells assessed as reduction in NO production by Western blot analysis. It is filed as functional, cell-based. A general note: Immunoblotting shows a protein as a band on a membrane.
The subject of test [9] is Rattus norvegicus. The test is described as follows: Antiinflammatory activity in rat assessed as inhibition of carrageenan-induced hind paw edema at 25 mg/kg, po administered 1 hr before carrageenan challenge measured up to 5 hrs by plethysmometer. It is filed as functional, organism-based. Details: dose 25 mg/kg.
Test [10] deals with RAW264.7. The test is described as follows: Inhibition of LPS-induced PGE2 production in mouse RAW264.7 cells treated 1 hr before LPS challenge measured after 24 hrs by EIA. It is filed as functional, cell-based.
Test [11] relates to Rattus norvegicus. The test is described as follows: Antiinflammatory activity in rat assessed as inhibition of carrageenan-induced myeloperoxidase activity in hind paw at 25 mg/kg, po administered 1 hr before carrageenan challenge measured up to 5 hrs by EIA. It is filed as functional, organism-based. Details: dose 25 mg/kg.
In test [12] the test system is Rattus norvegicus. Kind of test: Antiarthritic activity in Freund's complete adjuvant-induced Sprague-Dawley rat arthritis model assessed as reduction in paw volume at 50 mg/kg, po administered daily on day 9 to day 19 post challenge. It is filed as functional. Also on record: scale not given: the % may be the effect or the level left.
Test [13] deals with T2, Prostaglandin G/H synthase 1 (Ovis aries) (UniProt P05979).
T2 sequence (whole entry): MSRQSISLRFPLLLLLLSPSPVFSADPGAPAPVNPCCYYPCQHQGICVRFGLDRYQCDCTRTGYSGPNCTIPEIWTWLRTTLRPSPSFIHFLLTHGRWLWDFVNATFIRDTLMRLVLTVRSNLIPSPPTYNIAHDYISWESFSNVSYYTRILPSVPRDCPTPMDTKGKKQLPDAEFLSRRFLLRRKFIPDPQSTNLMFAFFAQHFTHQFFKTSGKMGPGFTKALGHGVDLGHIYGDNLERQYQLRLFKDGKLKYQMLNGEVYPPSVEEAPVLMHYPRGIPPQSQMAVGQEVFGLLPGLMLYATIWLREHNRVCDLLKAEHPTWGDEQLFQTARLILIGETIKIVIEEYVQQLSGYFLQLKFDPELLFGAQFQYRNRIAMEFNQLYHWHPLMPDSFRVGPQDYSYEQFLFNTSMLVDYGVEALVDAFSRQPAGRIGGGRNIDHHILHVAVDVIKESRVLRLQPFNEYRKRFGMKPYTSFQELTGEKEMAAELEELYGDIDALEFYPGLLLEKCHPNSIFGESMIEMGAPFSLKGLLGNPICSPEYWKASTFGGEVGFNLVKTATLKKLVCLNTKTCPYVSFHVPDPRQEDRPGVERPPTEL
The test is described as follows: Inhibition of ovine recombinant COX1 assessed as PGF2alpha production at 0.1 to 40 uM preincubated for 10 mins before substrate addition by EIA.

For test [14], the system named is RAW264.7. Kind of test: Inhibition of LPS-induced IL-6 mRNA expression in mouse RAW264.7 cells at 10 to 40 uM treated 1 hr before LPS challenge measured after 24 hrs by RT-PCR analysis. It is filed as functional, cell-based.
The subject of test [15] is RAW264.7. Kind of test: Effect on COX-1 mRNA expression in LPS-stimulated mouse RAW264.7 cells. It is filed as functional, cell-based.
Test [16] has as its system Rattus norvegicus. Kind of test: Antiarthritic activity in Freund's complete adjuvant-induced Sprague-Dawley rat arthritis model assessed as reduction in IL-1beta mRNA expression at 50 mg/kg, po administered daily on day 9 to day 19 post challenge measured on day 20 by RT-PCR analysis. It is filed as functional, organism-based. Also on record: dose 50 mg/kg.
Test [17] deals with RAW264.7. Kind of test: Effect on COX-1 protein expression in LPS-stimulated mouse RAW264.7 cells. It is filed as functional, cell-based.
Test [18] has as its system Rattus norvegicus. Kind of test: Antiarthritic activity in Freund's complete adjuvant-induced Sprague-Dawley rat arthritis model assessed as reduction in IL-6 mRNA expression at 50 mg/kg, po administered daily on day 9 to day 19 post challenge measured on day 20 by RT-PCR analysis. Details: dose 50 mg/kg. It is filed as functional, organism-based.
The test system of test [19] is RAW264.7. The test is described as follows: Inhibition of LPS-induced IL-6 production in mouse RAW264.7 cells at 10 to 40 uM treated 1 hr before LPS challenge measured after 24 hrs by EIA. It is filed as functional, cell-based.
Test [20] concerns RAW264.7. The test is described as follows: Inhibition of LPS-induced nitric oxide production in mouse RAW264.7 cells at 10 to 40 uM treated 1 hr before LPS challenge measured after 24 hrs by Griess method. It is filed as functional, cell-based. Background: The Griess reaction detects nitrite, a stable product of nitric oxide.
The subject of test [21] is RAW264.7. Kind of test: Inhibition of LPS-induced iNOS mRNA expression in mouse RAW264.7 cells assessed as reduction in NO production at 10 to 40 uM treated 1 hr before LPS challenge measured after 4 hrs by RT-PCR analysis. It is filed as functional, cell-based.
For test [22], the system named is RAW264.7. Kind of test: Inhibition of LPS-induced IL-1 beta production in mouse RAW264.7 cells at 10 to 40 uM treated 1 hr before LPS challenge measured after 24 hrs by EIA. It is filed as functional, cell-based.
Test [23] deals with Rattus norvegicus. The test is described as follows: Antiarthritic activity in Freund's complete adjuvant-induced Sprague-Dawley rat arthritis model assessed as inhibition of ankle swelling at 25 to 50 mg/kg, po administered daily on day 9 to day 19 post challenge. It is filed as functional, organism-based.
In test [24] the test system is Rattus norvegicus. The test is described as follows: Antiarthritic activity in Freund's complete adjuvant-induced Sprague-Dawley rat arthritis model assessed as reduction in plasma PGE2 levels at 50 mg/kg, po administered daily on day 9 to day 19 post challenge measured after 19 days by EIA. It is filed as functional. Details: scale not given: the % may be the effect or the level left.

Test [25] concerns RAW264.7. The test is described as follows: Effect on COX-2 protein expression in LPS-stimulated mouse RAW264.7 cells at 10 to 40 uM preincubated for 1 hr prior LPS challenge measured after 24 hrs by Western blot analysis. It is filed as functional, cell-based.
Test [26] has as its system Rattus norvegicus. The test is described as follows: Antiarthritic activity in Freund's complete adjuvant-induced Sprague-Dawley rat arthritis model assessed as inhibition of joint dysfunction at 25 to 50 mg/kg, po administered daily on day 9 to day 19 post challenge. It is filed as functional, organism-based.
Test [27] relates to Rattus norvegicus. Kind of test: Antiarthritic activity in Freund's complete adjuvant-induced Sprague-Dawley rat arthritis model assessed as inhibition of edema at 25 to 50 mg/kg, po administered daily on day 9 to day 19 post challenge. It is filed as functional, organism-based.
In test [28] the test system is Rattus norvegicus. The test is described as follows: Antiinflammatory activity in rat assessed as inhibition of carrageenan-induced PGE2 production in hind paw at 25 mg/kg, po administered 1 hr before carrageenan challenge measured up to 5 hrs by EIA. It is filed as functional, organism-based. Also on record: dose 25 mg/kg.

On to `CC(C)Cc1ccc(C(C)C(=O)O)cc1` (stereo not given), for which the inhibition result with Rattus norvegicus [1] is “Active”. Also, the outcome with Rattus norvegicus [2] was Active.
Consider `CSc1ccc(C2=C(c3ccc(O)cc3)C(=O)NC2=O)cc1`, for which the inhibition result (with RAW264.7 [3]; in test [13]; in the test on RAW264.7 [15]; in the test with RAW264.7 [17]; with RAW264.7 [25]) was “inactive” throughout. Also, the inhibition result with Rattus norvegicus [4], with RAW264.7 [5], in the test on RAW264.7 [8], in the test on Rattus norvegicus [9], in the test with Rattus norvegicus [11] and in the test with RAW264.7 [14] was “Active” throughout. The inhibition result in the test on Rattus norvegicus [1], with RAW264.7 [19], in the test with RAW264.7 [20], in the test on RAW264.7 [21], with RAW264.7 [22] and in the test on Rattus norvegicus [23] was “Active” in each case. The inhibition result in the test with Rattus norvegicus [26], in the test on Rattus norvegicus [27] and in the test on Rattus norvegicus [28] was “Active” in each case. Moreover, the inhibition result (in test [6]; with RAW264.7 [10]) was “Dose-dependent effect” in each case. Also, the outcome with Rattus norvegicus [7], in the test with Rattus norvegicus [16], in the test with Rattus norvegicus [18] and in the test on Rattus norvegicus [2] was Active. Besides, the figures for the Activity in the test on Rattus norvegicus [12] and in the test on Rattus norvegicus [24] were 53% and 42%, respectively.
